Assay results published in paper PMC7497086, “Fluorophore‐Labeled Cyclic Nucleotides as Potent Agonists of Cyclic Nucleotide‐Regulated Ion Channels” (Chembiochem, 2020).

Key:
Type in all cases: biochemical
[1] = molecular target: T1, Heterotetrameric CNGA2:A4:B1b channels (Rattus norvegicus, UniProt A0A8I5ZN27+Q00195+Q64359); assay: Patch-clamp activation of heterotetrameric olfactory CNGA2:A4:B1b channels, inside-out patches of Xenopus oocytes; details: inside-out patches, +10 mV
T1 construct: expressed in transfected cells; host or cells: Xenopus laevis oocytes injected with cRNA (CNGA2:CNGA4:CNGB1b at 2:1:1)
Description: First, the effect of the compounds on olfactory CNG channels with natural composition was tested. […] To determine the potency of the ligands, full concentration‐activation relationships were generated. These relationships were fitted with Equation 1 (Experimental Section), yielding the concentration of half maximum activation (EC 50) and the Hill coefficient (H a).
(§1) Molecular biology and heterologous expression of CNG and HCN channels: The subunits CNGA2 (accession No. AF126808), CNGA4 (accession no. U12623) and CNGB1b (accession no. AF068572) of rat olfactory channels as well as mouse HCN2 channels (NM008226) were subcloned in front of the T7 promoter of pGEMHEnew. The corresponding cRNAs were produced with the mMESSAGE mMACHINE T7 Kit (Ambion, Austin, TX, USA).
(§2) Oocytes at stages IV and V were injected with 50–130 ng cRNA encoding either CNGA2, CNGA2 : CNGA4 : CNGB1b (2 : 1 : 1 ratio) or HCN2 channels either manually or mediated by an injection robot (RoboInject®). The injected oocytes were incubated at 18 °C for up to 6 days in Barth's medium containing (in mM) 84 NaCl, 1 KCl, 2.4 NaHCO3, 0.82 MgSO4, 0.41 CaCl2, 0.33 Ca(NO3)2, 7.5 TRIS, cefuroxime (4.0 μg/mL) and penicillin/streptomycin (100 μg/mL), pH 7.4.
(§3) Electrophysiology: Macroscopic currents were recorded in inside‐out patches of the oocytes expressing hundreds to several thousand of the desired channels by using the patch‐clamp technique. The patch pipettes were pulled from quartz tubing (P‐2000, Sutter Instrument, Novato, USA) with an outer and inner diameter of 1.0 and 0.7 mm (VITROCOM, New Jersey, USA). The corresponding pipette resistance was 0.9–2.3 MΩ. The bath and pipette solution contained (in mM): 150 KCl, 1 EGTA, 20 HEPES (pH 7.4) for CNG channel measurements. For HCN channel measurements the bath solution contained (in mM): 100 KCl, 10 EGTA, 10 HEPES (pH 7.2) and the pipette (in mM) 120 KCl, 10 HEPES, 1 CaCl2 (pH 7.2). All experiments were performed at room temperature by using an Axopatch 200B amplifier (Axon Instruments, Foster City, CA, USA). Electrophysiology was controlled by the Patchmaster‐software (HEKA Elektronik Dr. Schulze GmbH, Lambrecht, Germany). The sampling rate was 5 kHz and the filter implemented in the amplifier (4‐pole Bessel) was set to 2 kHz. Measurements in HCN2 channels were started 3.5 minutes after patch excision, to minimize run down phenomena.18 The solutions with the different ligand concentrations to be studied were applied by a multi‐barrel device to the patches with a flow rate of 0.8 to 1.2 mL/min. The concentration of the fluorescent ligands was verified by UV/Vis spectroscopy.
(§4) where I is the actual current amplitude and I max the maximum current amplitude at saturating concentration of each cyclic nucleotide. EC 50 is the ligand concentration generating half maximum current and H a the respective Hill coefficient.

[2] = molecular target: T2, Homotetrameric CNGA2 channels (Rattus norvegicus, UniProt Q00195); assay: Patch-clamp activation of homotetrameric CNGA2 channels, inside-out patches of Xenopus oocytes
T2 construct: expressed in transfected cells; host or cells: Xenopus laevis oocytes injected with CNGA2 cRNA
T2 sequence (Q00195 1-664): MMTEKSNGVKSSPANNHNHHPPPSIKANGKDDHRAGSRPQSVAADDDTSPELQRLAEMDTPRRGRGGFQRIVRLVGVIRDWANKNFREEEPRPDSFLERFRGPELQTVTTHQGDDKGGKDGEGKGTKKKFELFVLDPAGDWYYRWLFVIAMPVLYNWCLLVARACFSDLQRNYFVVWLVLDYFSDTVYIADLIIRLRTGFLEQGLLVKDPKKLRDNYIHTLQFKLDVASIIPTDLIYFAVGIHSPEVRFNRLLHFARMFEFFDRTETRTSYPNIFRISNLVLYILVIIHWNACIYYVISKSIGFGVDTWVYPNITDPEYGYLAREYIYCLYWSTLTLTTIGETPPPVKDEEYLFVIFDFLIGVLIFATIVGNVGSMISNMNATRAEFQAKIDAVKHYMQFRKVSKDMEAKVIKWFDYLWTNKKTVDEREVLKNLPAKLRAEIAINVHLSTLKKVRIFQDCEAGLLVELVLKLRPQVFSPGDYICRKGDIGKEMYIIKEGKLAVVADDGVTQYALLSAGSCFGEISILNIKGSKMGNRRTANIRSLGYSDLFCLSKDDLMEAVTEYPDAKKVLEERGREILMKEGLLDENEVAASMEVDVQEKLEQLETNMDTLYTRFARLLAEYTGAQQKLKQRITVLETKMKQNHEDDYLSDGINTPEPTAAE
Text: Moreover, we studied the effect of the nucleotide derivatives on homotetrameric CNGA2 channels.
as §1, §2, §3, §4

[3] = molecular target: T3, heterotetrameric olfactory CNG channels (Rattus norvegicus, UniProt A0A8I5ZN27+Q00195+Q64359); assay: Confocal patch-clamp fluorometry (cPCF): ligand binding and activation, heterotetrameric CNG channels; details: Figure 4A
T3 construct: expressed in transfected cells; host or cells: Xenopus laevis oocytes injected with cRNA (CNGA2:CNGA4:CNGB1b at 2:1:1)
Text: (§5) As expected from the above data, the binding profile of 10 was similar for the two different types of ion channels, yielding similar BC 50 and H b values.
(§6) Confocal patch‐clamp fluorometry: Ionic current and binding of the fluorescent ligand in macropatches were simultaneously measured by cPCF as described before.2a, 2b The patch pipettes were pulled from borosilicate glass tubing with an outer and inner diameter of 2.0 and 1.0 mm (Hilgenberg GmbH, Malsfeld, Germany). After fire polishing, the corresponding pipette resistance was 0.7–1.2 MΩ. The bath and pipette solution contained (in mM): 150 KCl, 1 EGTA, 5 HEPES (pH 7.4) for CNG channel measurements. To distinguish the fluorescence of the unbound fluorescent ligand from that of the bound fluorescent ligands, the fluorescent dye DY647 was added to the bath solution at a concentration of 5 μM. The fluorescent ligand and DY647 were excited at 543 and 633 nm, respectively, with a HeNe laser system and an AchroGate beam splitter. Fluorescence intensity from the bath and pipette solution were normalized on each other and the surplus of the green fluorescence of the patch dome with respect to the red fluorescence was used to quantify the bound ligands. The actual relative fluorescence (F) was normalized in each patch with respect to the maximum relative fluorescence (F max) at a saturating concentration of the fluorescent ligand. […]

[4] = molecular target: T4, homotetrameric olfactory CNG channels (Rattus norvegicus, UniProt Q00195); assay: Confocal patch-clamp fluorometry (cPCF): ligand binding and activation, homotetrameric CNG channels; details: Figure 4B
T4 construct: expressed in transfected cells; host or cells: Xenopus laevis oocytes injected with CNGA2 cRNA
T4 sequence (Q00195 1-664): T2 sequence (Q00195 1-664)
Text: as §5, §6

[5] = unit only in the axis title [10] (μM)

T3 sequence (Q64359 whole entry, one chain of several): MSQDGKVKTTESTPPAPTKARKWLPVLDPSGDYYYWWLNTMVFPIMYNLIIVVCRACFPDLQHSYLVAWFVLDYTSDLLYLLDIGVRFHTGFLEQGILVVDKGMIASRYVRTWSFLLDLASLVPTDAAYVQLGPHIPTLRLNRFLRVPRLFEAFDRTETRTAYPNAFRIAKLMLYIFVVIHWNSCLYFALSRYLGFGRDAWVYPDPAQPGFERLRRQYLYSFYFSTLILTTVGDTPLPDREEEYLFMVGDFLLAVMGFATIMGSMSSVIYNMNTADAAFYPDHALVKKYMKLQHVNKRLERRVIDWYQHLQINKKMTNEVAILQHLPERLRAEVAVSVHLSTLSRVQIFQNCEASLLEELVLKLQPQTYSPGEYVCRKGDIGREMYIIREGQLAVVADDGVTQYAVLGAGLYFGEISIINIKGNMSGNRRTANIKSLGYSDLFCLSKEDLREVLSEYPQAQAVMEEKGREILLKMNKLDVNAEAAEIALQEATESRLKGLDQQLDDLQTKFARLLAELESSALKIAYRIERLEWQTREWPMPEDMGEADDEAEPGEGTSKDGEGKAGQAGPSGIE
T3 sequence (A0A8I5ZN27 1-858 isoform A0A8I5ZN27-2, one chain of several): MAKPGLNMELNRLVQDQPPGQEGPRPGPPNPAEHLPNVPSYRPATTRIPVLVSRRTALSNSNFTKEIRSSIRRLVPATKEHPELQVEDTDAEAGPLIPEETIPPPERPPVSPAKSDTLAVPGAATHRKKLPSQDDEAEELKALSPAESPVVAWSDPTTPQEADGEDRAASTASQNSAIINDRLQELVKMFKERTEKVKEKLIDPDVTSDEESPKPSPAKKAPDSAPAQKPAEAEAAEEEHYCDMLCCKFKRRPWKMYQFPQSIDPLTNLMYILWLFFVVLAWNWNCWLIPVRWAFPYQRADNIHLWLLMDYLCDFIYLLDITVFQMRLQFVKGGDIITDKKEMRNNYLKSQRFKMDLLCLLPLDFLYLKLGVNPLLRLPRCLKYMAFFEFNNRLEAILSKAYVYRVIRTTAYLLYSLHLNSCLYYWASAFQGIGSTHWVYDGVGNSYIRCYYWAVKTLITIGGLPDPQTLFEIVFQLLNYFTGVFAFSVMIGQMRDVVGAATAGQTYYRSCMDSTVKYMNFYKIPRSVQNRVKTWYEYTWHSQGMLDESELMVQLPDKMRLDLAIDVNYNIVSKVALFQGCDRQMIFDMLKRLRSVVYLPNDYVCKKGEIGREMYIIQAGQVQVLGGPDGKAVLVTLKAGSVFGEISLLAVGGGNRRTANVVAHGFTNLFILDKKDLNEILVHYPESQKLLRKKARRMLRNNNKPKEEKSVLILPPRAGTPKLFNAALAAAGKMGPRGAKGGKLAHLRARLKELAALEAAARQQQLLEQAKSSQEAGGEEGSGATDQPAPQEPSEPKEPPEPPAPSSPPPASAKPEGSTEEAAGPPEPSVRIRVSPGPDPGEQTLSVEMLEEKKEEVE
T1 sequence (Q64359 whole entry, one chain of several): as the sequence (Q64359 whole entry, one chain of several) above
T1 sequence (A0A8I5ZN27 1-858 isoform A0A8I5ZN27-2, one chain of several): as the sequence (A0A8I5ZN27 1-858 isoform A0A8I5ZN27-2, one chain of several) above

- H a (Hill coefficient of activation) [1]: 2.32±0.16
- EC50 ([1]; concentration of half maximum activation): 0.63 ± 0.02 µM
- EC 50 (in words) [2]: nanomolar range
- H a (Hill coefficient of activation) ([2]; inside-out patches): 4.03±0.12
- EC50 ([2]; inside-out patches, concentration of half maximum activation): 0.65 ± 0.01 µM
- Hb (Hill coefficient of binding, cPCF) [3]: 1.55
- EC50 [3, 5]: 1.03 ± 0.04 µM
- Hb (Hill coefficient of binding, cPCF) [4]: 1.43
- EC50 [4, 5]: 1.17 ± 0.07 µM
SMILES: CC1(C)C2=C3C=C4C5=[N+](CCC4OC3CCN2c2ccc(CC(=O)NCCCCCc3ccc(Sc4nc6c(=O)[nH]c(N)nc6n4[C@@H]4O[C@@H]6COP(=O)(O)O[C@H]6[C@H]4O)cc3)cc21)c1ccc(S(=O)(=O)[O-])cc1C5(C)C (stereo partly drawn) [Compound 10]
